One series relates to L929 cells. The series can be described thus: Cytotoxicity assay (MTS) towards L929 normal fibroblasts. The following applies: read-out: Cytotoxicity (IC50, μM) L929; L929 mouse fibroblasts.
Test in series [1]: as above
The following applies: mouse, L929 fibroblasts.

The next series relates to MCF7. The experiment in a line: Cell proliferation assay without modulator, MCF7. The series is classed as cell-based. The following applies: Homo sapiens, read-out: IC50 of anticancer drug, wild type MCF7.
In another series the test system is MCF7-MX100. The experiment in a line: Cell proliferation assay without modulator, MCF7-MX100. The series is classed as cell-based, human.
Series [2] relates to HEK293/pcDNA3.1 cell line. The experiment in a line: Cell proliferation assay without modulator, HEK293/pcDNA3.1. The series is classed as cell-based. The following applies: Homo sapiens, read-out: IC50 of anticancer drug, wild type HEK293/pcDNA3.1.
The next series concerns HEK293/R2. The experiment in a line: Cell proliferation assay without modulator, HEK293/R2. The series is classed as cell-based. The following applies: Homo sapiens, read-out: IC50 of anticancer drug, HEK293/R2.
For a further series, the system named is 2008/MRP1. The experiment in a line: Cell proliferation assay, 2008/MRP1.
In another series the test system is 2008/P cells. The experiment in a line: Cell proliferation assay, 2008/P. The series is classed as cell-based. Particulars: Homo sapiens; without modulator; read-out: IC50 of anticancer drug, parental 2008/P cells.

Each structure is given as a SMILES string. Where “and” joins values, the source holds several entries; their conditions need not be identical. Identical values can stand only once. Like-named read-outs stand apart in the source and are kept apart here.

In the case of `COc1ccc2c3c([nH]c2c1)[C@H](CC(C)C)N1C(=O)[C@H](CCC(=O)OC(C)(C)C)NC(=O)[C@@H]1C3` [Ko143], the IC50 with L929 cells was 29 µM and 29.2 µM.

In series [1], `C/C=C/C[C@@H](C)C(=O)[C@H]1C(=O)N[C@@H](C(C)C)C(=O)N(C)CC(=O)N(C)[C@@H](CC(C)C)C(=O)N[C@@H](C(C)C)C(=O)N(C)[C@@H](CC(C)C)C(=O)N[C@@H](C)C(=O)N[C@H](C)C(=O)N(C)[C@@H](CC(C)C)C(=O)N(C)[C@@H](CC(C)C)C(=O)N(C)[C@@H](C(C)C)C(=O)N1C` [PSC833] yielded an IC50 at 5 days of over 100000 nM.

As for `CC[C@@]1(O)C(=O)OCc2c1cc1n(c2=O)Cc2cc3c(CN(C)C)c(O)ccc3nc2-1` [topotecan], the IC50 in the series with MCF7 came out at 320 ± 70 nM; in the series on MCF7-MX100 (Homo sapiens, MCF7/MX100, read-out: IC50 of anticancer drug, MCF7-MX100), 33400 ± 2100 nM; in series [2], 15.8 ± 1.5 nM; in the series on HEK293/R2, 508 ± 31.1 nM. In addition, in the series on MCF7-MX100, the “fold more resistance of MCF7-MX100 than wild type MCF7” value is reported as “about 104.4 fold”.

For the molecule `COc1cccc2c1C(=O)c1c(O)c3c(c(O)c1C2=O)C[C@@](O)(C(=O)CO)C[C@@H]3O[C@H]1C[C@H](N)[C@H](O)[C@H](C)O1` [DOX], the IC50 in the series with 2008/MRP1 (Homo sapiens, 2008/MRP1, read-out: IC50 of anticancer drug, 2008/MRP1, without modulator) amounted to 420 ± 17.4 nM; in the series on 2008/MRP1 (read-out: IC50 of anticancer drug, 2008/MRP1, without modulator), 413 nM; in the series on 2008/P cells it was 50.1 ± 3.9 nM. Besides, the “fold more resistance of 2008/MRP1 than parental 2008/P” value in the series with 2008/MRP1 (without modulator) is “about 8.4 fold”.

The record behind these values is US9611256B2, “Alkyne-, azide- and triazole-containing flavonoids as modulators for multidrug resistance in cancers” (The Hong Kong Polytechnic University, priority 2012, dated 2017).
